This is an account of results in ChEMBL document CHEMBL1159057, “Novel anilinophthalimide derivatives as potential probes for beta-amyloid plaque in the brain” (Bioorg Med Chem, 2010).

Data set [1] can be described thus: Binding affinity to beta-amyloid plaques.
For data set [2], the target named is T1, Amyloid-beta precursor protein (Homo sapiens, UniProt P05067). Kind of data set: Binding affinity to beta-amyloid plaques isolated from Alzheimer's disease patient brain at 50 uM by fluorescence micrography.
T1 sequence (P05067 whole entry): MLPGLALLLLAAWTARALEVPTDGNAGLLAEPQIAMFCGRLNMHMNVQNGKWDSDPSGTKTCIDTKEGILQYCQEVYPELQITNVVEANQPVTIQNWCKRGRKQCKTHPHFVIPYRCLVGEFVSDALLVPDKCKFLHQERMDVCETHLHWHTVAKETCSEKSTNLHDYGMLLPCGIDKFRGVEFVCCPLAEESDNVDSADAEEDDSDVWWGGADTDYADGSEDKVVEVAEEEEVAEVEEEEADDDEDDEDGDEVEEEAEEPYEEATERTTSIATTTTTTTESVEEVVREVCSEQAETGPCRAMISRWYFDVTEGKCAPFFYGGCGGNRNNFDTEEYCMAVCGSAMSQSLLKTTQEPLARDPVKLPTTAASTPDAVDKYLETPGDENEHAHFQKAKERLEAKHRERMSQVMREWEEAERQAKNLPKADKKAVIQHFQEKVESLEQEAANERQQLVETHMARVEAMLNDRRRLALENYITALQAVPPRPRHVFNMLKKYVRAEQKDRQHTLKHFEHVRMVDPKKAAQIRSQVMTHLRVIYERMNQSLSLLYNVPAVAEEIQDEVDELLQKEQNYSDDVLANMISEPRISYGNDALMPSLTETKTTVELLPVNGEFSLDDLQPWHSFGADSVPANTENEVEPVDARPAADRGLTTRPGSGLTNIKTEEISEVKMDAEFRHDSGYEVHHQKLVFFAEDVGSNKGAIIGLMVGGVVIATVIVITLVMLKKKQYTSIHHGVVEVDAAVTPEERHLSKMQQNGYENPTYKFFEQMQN
Data set [3] concerns the target T1, Amyloid-beta precursor protein. As to the kind of experiment: Displacement of [125I-N-Methyl-4-(4-bromoanilino)phthalimide from beta-amyloid plaques isolated from Alzheimer's disease patient brain.
For data set [4], the system named is Brain. As to the kind of experiment: Biodistribution in Kunming mouse brain at 2 uCi, iv after 10 mins. The following applies: in vivo. In kind it is ADME, organism-based.
Data set [5] relates to Blood. As to the kind of experiment: Biodistribution in Kunming mouse blood at 2 uCi, iv after 10 mins. The class given is ADME, organism-based. Particulars: in vivo.
Data set [6] in a line: Partition coefficient, log P at pH 7.4 phosphate buffer. In kind it is physicochemical.
Data set [7] relates to Spleen. As to the kind of experiment: Biodistribution in Kunming mouse spleen at 2 uCi, iv after 10 mins. In kind it is ADME, organism-based. The following applies: in vivo.
Data set [8] has as its system Liver. Kind of data set: Biodistribution in Kunming mouse liver at 2 uCi, iv after 30 mins. The class given is ADME, organism-based. Particulars: in vivo, 0.5 h.
Data set [9] has as its system Spleen. Kind of data set: Biodistribution in Kunming mouse spleen at 2 uCi, iv after 2 mins. The class given is ADME, organism-based. The following applies: in vivo.
Data set [10] concerns Spleen. As to the kind of experiment: Biodistribution in Kunming mouse spleen at 2 uCi, iv after 60 mins. In kind it is ADME, organism-based. Particulars: in vivo, 1 h.
Data set [11] relates to Heart. Kind of data set: Biodistribution in Kunming mouse heart at 2 uCi, iv after 2 mins. The class given is ADME, organism-based. The following applies: in vivo.
In data set [12] the test system is Brain. As to the kind of experiment: Biodistribution in Kunming mouse brain at 2 uCi, iv after 60 mins. The class given is ADME, organism-based. Particulars: in vivo, 1 h.
The test system of data set [13] is Liver. As to the kind of experiment: Biodistribution in Kunming mouse liver at 2 uCi, iv after 2 mins. In kind it is ADME, organism-based. Particulars: in vivo.
Data set [14] has as its system Lung. As to the kind of experiment: Biodistribution in Kunming mouse lung at 2 uCi, iv after 30 mins. Particulars: in vivo, 0.5 h. In kind it is ADME, organism-based.
Data set [15] concerns Blood. Kind of data set: Biodistribution in Kunming mouse blood at 2 uCi, iv after 2 mins. In kind it is ADME, organism-based. The following applies: in vivo.
The subject of data set [16] is Heart. As to the kind of experiment: Biodistribution in Kunming mouse heart at 2 uCi, iv after 30 mins. The class given is ADME, organism-based. Particulars: in vivo, 0.5 h.
In data set [17] the test system is Kidney. Kind of data set: Biodistribution in Kunming mouse kidney at 2 uCi, iv after 30 mins. In kind it is ADME, organism-based. Particulars: in vivo, 0.5 h.
Data set [18] deals with Liver. Kind of data set: Biodistribution in Kunming mouse liver at 2 uCi, iv after 10 mins. In kind it is ADME, organism-based. Particulars: in vivo.
Data set [19] relates to Lung. As to the kind of experiment: Biodistribution in Kunming mouse lung at 2 uCi, iv after 2 mins. The following applies: in vivo. In kind it is ADME, organism-based.
The subject of data set [20] is Lung. Kind of data set: Biodistribution in Kunming mouse lung at 2 uCi, iv after 10 mins. The following applies: in vivo. The class given is ADME, organism-based.
The test system of data set [21] is Brain. As to the kind of experiment: Biodistribution in Kunming mouse brain at 2 uCi, iv after 2 mins. Particulars: in vivo. In kind it is ADME, organism-based.
Data set [22] has as its system Liver. As to the kind of experiment: Biodistribution in Kunming mouse liver at 2 uCi, iv after 60 mins. Particulars: in vivo, 1 h. The class given is ADME, organism-based.
The subject of data set [23] is Kidney. Kind of data set: Biodistribution in Kunming mouse kidney at 2 uCi, iv after 60 mins. Particulars: in vivo, 1 h. In kind it is ADME, organism-based.
Data set [24] deals with Blood. Kind of data set: Biodistribution in Kunming mouse blood at 2 uCi, iv after 60 mins. In kind it is ADME, organism-based. The following applies: in vivo, 1 h.
Data set [25] deals with Spleen. Kind of data set: Biodistribution in Kunming mouse spleen at 2 uCi, iv after 30 mins. The following applies: in vivo, 0.5 h. In kind it is ADME, organism-based.
The subject of data set [26] is Kidney. As to the kind of experiment: Biodistribution in Kunming mouse kidney at 2 uCi, iv after 10 mins. In kind it is ADME, organism-based. Particulars: in vivo.
For data set [27], the system named is Blood. As to the kind of experiment: Biodistribution in Kunming mouse blood at 2 uCi, iv after 30 mins. The class given is ADME, organism-based. The following applies: in vivo, 0.5 h.
In data set [28] the test system is Kidney. Kind of data set: Biodistribution in Kunming mouse kidney at 2 uCi, iv after 2 mins. In kind it is ADME, organism-based. The following applies: in vivo.
Data set [29] deals with Brain. As to the kind of experiment: Biodistribution in Kunming mouse brain at 2 uCi, iv after 30 mins. In kind it is ADME, organism-based. The following applies: in vivo, 0.5 h.
Data set [30] deals with Heart. As to the kind of experiment: Biodistribution in Kunming mouse heart at 2 uCi, iv after 60 mins. In kind it is ADME, organism-based. The following applies: in vivo, 1 h.
Data set [31] has as its system Lung. Kind of data set: Biodistribution in Kunming mouse lung at 2 uCi, iv after 60 mins. In kind it is ADME, organism-based. Particulars: in vivo, 1 h.
Data set [32] deals with Heart. Kind of data set: Biodistribution in Kunming mouse heart at 2 uCi, iv after 10 mins. Particulars: in vivo. The class given is ADME, organism-based.

Each structure is given as a SMILES string. pKd, pKi: −log10 of the molar value. The source made the active and inactive calls. No cut-off for these calls is given here.

For the compound `CN(C)c1ccc(-c2cn3cc([123I])ccc3n2)cc1`, the pKi in data set [1] is […].
Turning to `Cc1ccc(Nc2ccc3c(c2)C(=O)N(C)C3=O)cc1`, the result in data set [2] was Active. In addition, the negative-log Ki (pKi) in data set [3] was 8.39.
Compound `CC(=C(C#N)C#N)c1ccc2cc(N(C)CC[18F])ccc2c1` showed a negative logarithm of the Ki (pKi) in data set [1] of 8.57.
`Nc1c(/N=N/c2ccc(-c3ccc(/N=N/c4cc(S(=O)(=O)O)c5ccccc5c4N)cc3)cc2)cc(S(=O)(=O)O)c2ccccc12` [CONGO RED] had a pKi in data set [3] of under 6.00.
`CN1C(=O)c2ccc(Nc3ccc(I)cc3)cc2C1=O`: the result in data set [2] was Active. Also, the pKi in data set [3] is 9.05.
Take `CN1C(=O)c2ccc(Nc3ccccc3)cc2C1=O`: the pKi in data set [3] is 8.12.
Turning to `CN1C(=O)c2ccc(Nc3ccc(Br)cc3)cc2C1=O`, the outcome in data set [2] was Active. In [3], the pKi was 8.42.
Turning to `CN1C(=O)c2ccc(Nc3ccc([125I])cc3)cc2C1=O`, the Drug uptake with Brain [4] was 3.41 % ID/g; in the data set with Blood [5], 2.74 % ID/g; in the data set on Spleen [7], 6.87 % ID/g; in the data set with Liver [8], 5.84 % ID/g; in the data set with Spleen [9] it was 5.64 % ID/g; with Spleen [10], 2.92 % ID/g. Besides, the Drug uptake came out at 7.4 % ID/g in the data set with Heart [11]; 0.59 % ID/g in the data set on Brain [12]; 11.98 % ID/g in the data set with Liver [13]; 3.47 % ID/g with Lung [14]; 2.47 % ID/g in the data set on Blood [15]; 2.83 % ID/g in the data set on Heart [16]. Moreover, the Drug uptake in the data set on Kidney [17] is recorded as 3.59 % ID/g; with Liver [18], 14.38 % ID/g; with Lung [19], 6.77 % ID/g; in the data set on Lung [20] it was 6.35 % ID/g; with Brain [21], 5.16 % ID/g; in the data set with Liver [22], 3.37 % ID/g. Moreover, the Drug uptake in the data set with Kidney [23] is listed as 2.68 % ID/g; with Blood [24] it was 2.78 % ID/g; with Spleen [25] it was 3.7 % ID/g; with Kidney [26] it was 6.55 % ID/g; in the data set with Blood [27] it was 2.69 % ID/g; in the data set on Kidney [28] it was 9.81 % ID/g. For the same compound, the Drug uptake with Brain [29] came out at 1.16 % ID/g; in the data set on Heart [30], 2.24 % ID/g; with Lung [31], 2.82 % ID/g; with Heart [32], 3.41 % ID/g. Besides, the log distribution coefficient (logD) in data set [6] was 2.16. The negative-log Kd (pKd) in data set [3] was 9.68.
Compound `COc1ccc2cc([C@H](C)C(=O)O)ccc2c1` [NAPROXEN] showed a pKi in data set [1] of 8.24.
With `O=C1NC(=O)c2cc(Nc3ccccc3)c(Nc3ccccc3)cc21` [DAPH], the pKi in data set [3] was under 6.00.
Still for that read-out and setting: as for `CN1C(=O)c2cc(Nc3ccccc3)c(Nc3ccccc3)cc2C1=O`, the figure is under 6.00; as for `CN1C(=O)c2ccc(Nc3ccc(O)cc3)cc2C1=O`, 7.71; as for `COc1ccc(Nc2ccc3c(c2)C(=O)N(C)C3=O)cc1`, 7.79.
In data set [1], `[11CH3]Nc1ccc(-c2nc3ccc(O)cc3s2)cc1` [PITTSBURGH COMPOUND B] showed a pKi of 8.37.
